The source of these data is patent US5466811A, “Dioxolenylmethyl carbamates pro moieties for amine drugs” (Merck & Co., Inc., priority 1994, dated 1995).

In general, half-life refers to the time needed for the level to fall by half in the phase considered. A higher half-life goes with slow loss.

The nature of one data set: in vitro. The conditions noted are these: rat, plasma. It counts as in vitro ADME. On the procedure:
The process of hydrolysis of the dioxolenylmethyl carbamate of 3,4-dimethoxyphenethylamine was studied by measuring the formation of dimethoxyphenethylamine at 37° C. in neat rat plasma. The reaction was initiated by adding a dimethyl sulfoxide (DMSO) solution of the carbamate to the reaction medium pre-equilibrated at 37° C. in a thermostated water bath. The initial concentrations of the carbamate in rat plasma was 4.3×10^-3 M and the concentration of DMSO was 10%. Samples (100 μL of acetonitrile, vortex mixed for 30 seconds to precipitate the plasma proteins, and centrifuged at 10,000 X g for 5 minutes. The supematants were injected directly and analyxed by HPLC. The HPLC column used was a 10 cm spheri-5 RP-18 column combined with a similar 3 cm guard column. The mobile phase used for the analysis of dimethoxyphenethylamine was 30% v/v of acetonitrile in water containing 0.5 mL/L of 85% phosphoric acid and 0.5 mL/L of triethylamine at a flow rate of 2 mL per minute. The concentration was measured at 280 nm using a variable wave length UV detector. The retention time of dimethoxyphenethylamine under these conditions was 5.8 minutes.

In the next data set the test system is rats. The settings on record: oral administration, Sakamoto, et al, Chem. Pharm. Bull., 1985, 33, 4870; cited from earlier work.

`COc1ccc(CCNC(=O)OCc2oc(=O)oc2C)cc1OC` [5'-methyl-2'-oxo-1',3'-dioxol-4'-enyl-4'-methylcarbamoyl-3,4-dimethoxyphenethylamine] had a half-life at 4300 µM in “in vitro” of 11 min.

As to `CCn1cc(C(=O)O)c(=O)c2cc(F)c(N3CCN(Cc4oc(=O)oc4C)CC3)cc21` [alkylated nofloxacin], the “regeneration of the parent drug” value in the data set on rats is “regenerated the parent drug”.
